Data from patent US7498343B2, “Mycobacterial inhibitors” (priority 2002, dated 2009).
Values after ≈ are worked out from the molar mass of the structure shown. Read-outs that look alike come from different tables or passages of the source.

Assays:
[1] = test system: Mycobacterium tuberculosis (strain H37RV); assay: In-vitro method for testing compounds against M. tuberculosis (resazurin growth inhibition, MIC); format: cell-based; conditions: MIC data representing IC90's, 7 days incubation, resazurin fluorescence
M. Smegmatis ATCC607 = assay: In-vitro method for testing compounds for anti-bacterial activity against strain M. smegmatis ATCC607 (Alamar Blue growth inhibition); format: cell-based; conditions: pIC50 = -logIC50, IC50 in M, 50% inhibitory concentration for bacterial growth, 48 hours incubation; for pIC50: M. smegmatis ATCC607
Method: C.2. In-vitro Method for Testing Compounds for Anti-bacterial Activity Against Strain M. Smegmatis ATCC607. […] Subsequently, stock solutions (7.8×final test concentration) of compounds were added in 45 μl volumes to a series of duplicate wells in column 2 so as to allow evaluation of their effects on bacterial growth. Serial five-fold dilutions (45 μl in 180 μl) were made directly in the microtiter plates from column 2 to 11 using a customised robot system (Zymark Corp., Hopkinton, Mass.). Pipette tips were changed after every 3 dilutions to minimize pipetting errors with high hydrophobic compounds. Untreated control samples with (column 1) and without (column 12) inoculum were included in each microtiter plate. Approximately 250 CFU per well of bacteria inoculum, in a volume of 100 μl in 2.8×Mueller-Hinton broth medium, was added to the rows […]. The same volume of broth medium without inoculum was added to column 12 in row A to H. The cultures were incubated at 37° C. for 48 hours in a humidified 5% CO2 atmosphere (incubator with open air valve and continuous ventilation). At the end of incubation, two days after inoculation, the bacterial growth was quantitated fluorometrically. Therefore Alamar Blue (10×) was added to all wells in a volume of 20 μl and plates were incubated for another 2 hours at […] The fluorescence was read in a computer-controlled fluorometer (Cytofluor, Biosearch) at an excitation wavelength of 530 nm and an emission wavelength of 590 nm (gain 30). The % growth inhibition achieved by the compounds was calculated according to standard methods.

SMILES | MIC [1] | pIC50 (M. Smegmatis ATCC607) | IC50 (M. Smegmatis ATCC607; Mycolicibacterium smegmatis, ATCC607, 48 h, read-out: pIC50, M. smegmatis ATCC607 (converted)) | MIC ([1]; Mycobacterium tuberculosis, H37RV, 168 h, read-out: MIC)
COc1nc2ccc(Br)cc2cc1C(c1ccccc1)C(O)(CCN1CCN(C)CC1)c1ccc2cc(Br)ccc2c1 (single isomer, unassigned) [Compound 154] | 68.95 microgram/ml | 4.9 | – | –
COc1nc2ccc(Br)cc2cc1C(c1ccccc1)C(O)(CCN(C)C)c1ccc2c(c1)OCO2 (racemic) [Compound 76] | 1.74 microgram/ml | 5.9 | – | –
COc1nc2ccc(Br)cc2cc1C(c1ccccc1)C(O)(CCCCN(C)C)c1ccc2ccccc2c1 (single isomer, unassigned) [Compound 190] | 1.85 microgram/ml | 6.5 | – | –
COc1nc2cccc(Br)c2cc1C(c1ccccc1)C(O)(CCN(C)C)c1cccc2ccccc12 (single isomer, unassigned) [Compound 221] | 44.13 microgram/ml | 6.5 | – | –
COCCOc1nc2ccc(Br)cc2cc1C(c1ccccc1)C(O)(CCN(C)C)c1cccc2ccccc12 (single isomer, unassigned) [Compound 176] | 9.50 microgram/ml | 6.8 | – | –
COc1nc2ccc(Br)cc2cc1C(c1ccccc1)C(O)(CCc1ccccc1)CCN(C)C (single isomer, unassigned) [Compound 96] | 21.24 microgram/ml | 6.2 | – | –
COc1nc2ccc(Br)cc2cc1C(c1ccccc1)C(O)(CCn1cncn1)c1ccccc1 (racemic) [Compound 54] | 52.94 microgram/ml | 4.1 | – | –
CCOc1nc2ccc(Br)cc2cc1C(c1ccccc1)C(O)(CCN(C)C)c1ccccc1 (centres unmarked) [Compound 6] | 8.23 microgram/ml | 5.8 | – | –
COc1nc2ccc(Br)cc2cc1C(c1ccccc1)C(O)(CCCN1CCCC1)c1ccc2ccccc2c1 (single isomer, unassigned) [Compound 133] | 59.56 microgram/ml | 5.1 | – | –
COc1nc2ccc(Br)cc2cc1C(c1ccccc1)C(O)(CC[N+](C)(C)C)c1ccccc1.[I-] (racemic) [Compound 57] | 25.77 microgram/ml | 5.4 | – | –
COc1nc2ccc(Br)cc2cc1C(c1ccccc1)C(O)(CCN(C)C)c1ccc2c(Br)cccc2c1 (single isomer, unassigned) [Compound 127] | 25.26 microgram/ml | 6.9 | – | –
COc1nc2cc(Br)ccc2cc1C(c1ccccc1)C(O)(CCN(C)C)c1cccc2ccccc12 (single isomer, unassigned) [Compound 218] | 8.80 microgram/ml | 6.6 | – | –
COc1nc2ccc(Br)cc2cc1C(c1ccccc1)C(O)(CCN(C)C)c1cccc2ccccc12 (centres unmarked) [Compound 13] | 44.13 microgram/ml | – | 0.2 µM | –
COc1nc2ccc(Br)cc2cc1C(c1ccccc1)C(O)(CCN1CCN(C)CC1)c1ccc2ccccc2c1 (racemic) [Compound 137] | 42.23 microgram/ml | 4.6 | – | –
COc1ccc2cc(C(O)(CCN(C)C)C(c3ccccc3)c3cc4cc(Br)ccc4nc3OC)ccc2c1 (single isomer, unassigned) [Compound 163] | 46.51 microgram/ml | 5.9 | – | –
COc1nc2ccc(Br)cc2cc1C(c1ccccc1)C(O)(CCN(C)C)c1cccc2c1CCCC2 (single isomer, unassigned) [Compound 131] | 44.45 microgram/ml | 6.9 | – | –
COc1nc2ccc(Br)cc2cc1C(c1ccccc1)C(O)(CC[N+](C)(C)[O-])c1ccccc1 (racemic) [Compound 58] | 16.49 microgram/ml | 6.8 | – | –
COc1nc2ccc(Br)cc2cc1C(c1ccccc1)C(O)(CCCN(C)C)c1ccc2ccccc2c1 (single isomer, unassigned) [Compound 126] | 56.96 microgram/ml | 5.2 | – | –
COc1nc2ccc(Br)cc2cc1C(c1ccccc1)C(O)(CCN1CCN(C)CC1)c1ccccc1 (racemic) [Compound 52] | 7.06 microgram/ml | 6.4 | – | –
COc1nc2ccc(C#N)cc2cc1C(c1ccccc1)C(O)(CCN(C)C)c1cccc(F)c1 (single isomer, unassigned) [Compound 180] | 3.73 microgram/ml | 6.6 | – | –
COc1nc2ccc(Br)cc2cc1C(c1ccccc1)C(O)(CCN1CCN(C)CC1)c1cccc2ccccc12 (single isomer, unassigned) [Compound 156] | 9.68 microgram/ml | 5.3 | – | –
COc1nc2ccc(Br)cc2cc1C(c1ccccc1)C(O)(CCN(C)C)c1ccc(F)cc1 (single isomer, unassigned) [Compound 182] | 8.30 microgram/ml | 6.3 | – | –

SMILES | MIC [1] | pIC50 (M. Smegmatis ATCC607) | IC50 (M. Smegmatis ATCC607; Mycolicibacterium smegmatis, ATCC607, 48 h, read-out: pIC50, M. smegmatis ATCC607 (converted)) | MIC ([1]; Mycobacterium tuberculosis, H37RV, 168 h, read-out: MIC)
COc1nc2ccc(Br)cc2cc1C(c1ccc(F)cc1)C(O)(CCN(C)C)c1cccc2ccccc12 (racemic) [Compound 206] | 9.09 microgram/ml | 6.5 | – | –
COc1nc2ccc(-c3ccco3)cc2cc1C(c1ccccc1)C(O)(CCN(C)C)c1cccc(F)c1 (single isomer, unassigned) [Compound 175] | 10.19 microgram/ml | 6.5 | – | –
COc1nc2ccc(F)cc2cc1C(c1ccccc1)C(O)(CCN(C)C)c1ccccc1 (single isomer, unassigned) [Compound 28] | 1.41 microgram/ml | 7.3 | – | –
COc1nc2ccc(Br)cc2cc1C(c1ccccc1)C(O)(CCN1CCSCC1)c1ccccc1 (racemic) [Compound 55] | 44.77 microgram/ml | 5.1 | – | –
COc1nc2ccc(Br)cc2cc1C(c1ccccc1)C(O)(CCN)c1ccccc1 (centres unmarked) [Compound 44] | 6.01 microgram/ml | 5.9 | – | –
COc1nc2ccccc2cc1C(c1ccccc1)C(O)(CCN(C)C)c1cccc2ccccc12 (racemic) [Compound 92] | 7.55 microgram/ml | 6.5 | – | –
COc1nc2ccc(Br)cc2cc1C(c1ccccc1)C(O)(CC[N+](C)(C)C)c1cccc2ccccc12.[I-] (single isomer, unassigned) [Compound 121] | 2.21 microgram/ml | 5.9 | – | –
COc1nc2ccc(Br)cc2cc1C(c1ccccc1)C(O)(CCN1CCCCC1)c1ccc2cc(Br)ccc2c1 (centres unmarked) [Compound 155] | – | 4.9 | – | 67.5 µg/mL (≈ 100 µM)
COc1nc2ccccc2cc1C(c1ccccc1)C(C)(O)CCN(C)C (single isomer, unassigned) [Compound 43] | 44.34 microgram/ml | 4.4 | – | –
COc1nc2c(C)cc(Br)cc2cc1C(c1ccccc1)C(O)(CCN(C)C)c1cccc(F)c1 (single isomer, unassigned) [Compound 220] | 8.52 microgram/ml | 5.3 | – | –
CCN(C)CCC(O)(c1cccc2ccccc12)C(c1ccccc1)c1cc2cc(Br)ccc2nc1OC (centres unmarked) [Compound 148] | 56.96 microgram/ml | 4.9 | – | –
COc1nc2ccc(Br)cc2cc1C(c1ccccc1)C(O)(CCN(C)C)c1cccnc1 (racemic) [Compound 86] | 16.02 microgram/ml | 6.9 | – | –
COc1nc2ccc(Br)cc2cc1C(c1ccccc1)C(O)(CCCCN(C)C)c1cccc2ccccc12 (single isomer, unassigned) [Compound 197] | 9.25 microgram/ml | 6.6 | – | –
COc1nc2ccc(Br)cc2cc1C(c1ccccc1)C(O)(CN(C)C)c1ccccc1 (single isomer, unassigned) [Compound 61] | 39.04 microgram/ml | 4.5 | – | –
COc1nc2ccc(Br)cc2cc1C(c1ccc(Cl)cc1)C(O)(CCN(C)C)c1cccc2ccccc12 (racemic) [Compound 74] | 59.00 microgram/ml | 6.5 | – | –
CCN(C)CCC(O)(c1ccc2ccccc2c1)C(c1ccccc1)c1cc2cc(Br)ccc2nc1OC (centres unmarked) [Compound 142] | 9.03 microgram/ml | 6.2 | – | –
COc1nc2ccc(Cl)cc2cc1C(c1ccccc1)C(O)(CCN(C)C)c1ccccc1 (single isomer, unassigned) [Compound 30] | 1.46 microgram/ml | 7.8 | – | –
COc1nc2ccc(Br)cc2cc1C(c1ccccc1)C(O)(CCN1CCCCC1)c1cccc2ccccc12 (centres unmarked) [Compound 146] | 59.56 microgram/ml | 4.8 | – | –
COc1nc2ccc(C)cc2cc1C(c1ccccc1)C(O)(CCN(C)C)c1ccccc1 (single isomer, unassigned) [Compound 22] | 1.11 microgram/ml | 7.2 | – | –
COc1nc2ccc(Br)cc2cc1C(c1ccccc1)C(O)(CCN(C)C)c1ccc(C#N)cc1 (racemic) [Compound 80] | 2.11 microgram/ml | 7.1 | – | –
COc1nc2ccc(Br)cc2cc1C(c1ccccc1)C(O)(CCN1CCN(C)CC1)c1cccc2ccccc12 (single isomer, unassigned) [Compound 149] | 48.50 microgram/ml | 5.1 | – | –
